Test results taken from PubChem BioAssay (NCI).
Where “and” joins values, the source holds several entries; their conditions need not be identical. Identical values can stand only once.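 Dose response: 5 concentrations. Exposure: 48 h. Format: 96-well plates. Endpoint: linear interpolation; highest concentration if not reached. Here, GI50 denotes the concentration required for 50% inhibition of growth. TGI denotes the concentration required for complete inhibition of growth.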

How the values were obtained:
Test in all cases: NCI tumour cell line growth inhibition, 48 h
UACC-257 melanoma = tested on: UACC-257 melanoma
SR leukemia = tested on: SR leukemia
TK-10 renal = tested on: TK-10 renal
OVCAR-8 ovarian = tested on: OVCAR-8 ovarian
HCT-15 colon = tested on: HCT-15 colon
UACC-62 melanoma = tested on: UACC-62 melanoma
A498 renal = tested on: A498 renal
EKVX NSCLC = tested on: EKVX NSCLC
NCI-H460 lung = tested on: NCI-H460 lung
OVCAR-3 ovarian = tested on: OVCAR-3 ovarian

Compound: COc1cccc2c1C(=O)c1c(O)c3c(c(O)c1C2=O)C[C@@](O)(/C(CO)=N/NC(=O)CCCCCN1C(=O)C=CC1=O)C[C@@H]3O[C@H]1C[C@H](N)[C@H](O)[C@H](C)O1
- GI50 (UACC-257 melanoma): 1.06 µM
- TGI (UACC-257 melanoma): 4.32 µM
- GI50 (SR leukemia): 0.109 µM
- TGI (SR leukemia): > 100 µM
- GI50 (TK-10 renal): 1.68 µM
- TGI (TK-10 renal): > 27.4 µM
- GI50 (OVCAR-8 ovarian): 1.14 µM
- TGI (OVCAR-8 ovarian): 97.4 µM
- GI50 (HCT-15 colon): 7.94 µM
- TGI (HCT-15 colon): > 100 µM
- GI50 (UACC-62 melanoma): 0.621 µM
- TGI (UACC-62 melanoma): 3 µM
- GI50 (A498 renal): 0.361 µM
- TGI (A498 renal): 2.15 µM
- GI50 (EKVX NSCLC): 3.1 µM
- TGI (EKVX NSCLC): > 75.9 µM
- GI50 (NCI-H460 lung): 0.0889 µM
- TGI (NCI-H460 lung): 1.95 µM
- GI50 (OVCAR-3 ovarian): 1.89 µM
- TGI (OVCAR-3 ovarian): > 64.4 µM

Compound: Nc1cccc2c1-c1c(cccc1[N+](=O)[O-])C2=O
- TGI (UACC-257 melanoma): > 100 µM
- TGI (SR leukemia): > 100 µM
- TGI (TK-10 renal): > 100 µM
- TGI (OVCAR-8 ovarian): > 100 µM
- TGI (HCT-15 colon): > 100 µM
- TGI (UACC-62 melanoma): > 100 µM
- TGI (A498 renal): > 100 µM
- TGI (EKVX NSCLC): > 100 µM
- TGI (NCI-H460 lung): > 100 µM
- TGI (OVCAR-3 ovarian): > 100 µM

Compound: C[C@]12CC[C@H](O[C@@H]3O[C@H](CO[C@@H]4O[C@H](CO)[C@@H](O)[C@H](O)[C@H]4O)[C@@H](O)[C@H](O)[C@H]3O)C[C@@H]1CC[C@@H]1[C@@H]2CC[C@]2(C)[C@@H](C3=CC(=O)OC3)CC[C@]12O
- TGI (UACC-257 melanoma): > 73.3 µM
- TGI (SR leukemia): > 100 µM
- TGI (TK-10 renal): > 51.6 µM
- TGI (OVCAR-8 ovarian): 96.9 µM
- TGI (HCT-15 colon): 42.9 µM
- TGI (UACC-62 melanoma): > 80.4 µM
- TGI (A498 renal): 70 µM
- TGI (EKVX NSCLC): 40.4 µM
- TGI (NCI-H460 lung): > 44.9 µM
- TGI (OVCAR-3 ovarian): > 74.1 µM

Compound: Cc1cc(O)ccc1C1=NN(c2ccc(S(N)(=O)=O)cc2)C(=O)CC1
- GI50 (UACC-257 melanoma): 31.3 µM and > 100 µM
- TGI (UACC-257 melanoma): 50 µM and > 100 µM
- GI50 (SR leukemia): 1.05 µM and 1.12 µM
- TGI (SR leukemia): 50 µM and 6.78 µM
- GI50 (TK-10 renal): > 50 µM and 15.9 µM
- TGI (TK-10 renal): > 50 µM and 52.7 µM
- GI50 (OVCAR-8 ovarian): 15.4 µM and 46.2 µM
- TGI (OVCAR-8 ovarian): 50 µM and > 100 µM
- GI50 (HCT-15 colon): 2.67 µM and 4.2 µM
- TGI (HCT-15 colon): 50 µM and > 100 µM
- GI50 (UACC-62 melanoma): 2.74 µM and 3.68 µM
- TGI (UACC-62 melanoma): 50 µM and > 100 µM
- GI50 (A498 renal): 9.08 µM and 77.2 µM
- TGI (A498 renal): 50 µM and > 100 µM
- GI50 (EKVX NSCLC): 3.87 µM and 19.2 µM
- TGI (EKVX NSCLC): 50 µM and > 100 µM
- GI50 (NCI-H460 lung): 2.19 µM and 6.16 µM
- TGI (NCI-H460 lung): 50 µM and > 100 µM
- GI50 (OVCAR-3 ovarian): 2.69 µM and 8.06 µM
- TGI (OVCAR-3 ovarian): 29.9 µM and 71 µM

Compound: CCOc1cc(-c2nncn2C)ccc1Nc1ncc2cc(C)nc(NCC(C)(C)C)c2n1
- GI50 (UACC-257 melanoma): > 100 µM
- TGI (UACC-257 melanoma): > 100 µM
- GI50 (SR leukemia): 0.15 µM
- TGI (SR leukemia): > 75.8 µM
- GI50 (TK-10 renal): > 100 µM
- TGI (TK-10 renal): > 100 µM
- TGI (OVCAR-8 ovarian): > 100 µM
- GI50 (HCT-15 colon): 0.193 µM
- TGI (HCT-15 colon): > 100 µM
- GI50 (UACC-62 melanoma): > 100 µM
- TGI (UACC-62 melanoma): > 100 µM
- GI50 (A498 renal): 0.514 µM
- TGI (A498 renal): > 100 µM
- TGI (EKVX NSCLC): > 100 µM
- GI50 (NCI-H460 lung): 0.535 µM
- TGI (NCI-H460 lung): > 100 µM
- GI50 (OVCAR-3 ovarian): > 27.5 µM
- TGI (OVCAR-3 ovarian): > 100 µM

Compound: COC(=O)c1c[nH]c2cc(OC(C)C)c(OC(C)C)cc2c1=O
- GI50 (UACC-257 melanoma): > 100 µM
- TGI (UACC-257 melanoma): > 100 µM
- GI50 (SR leukemia): > 100 µM
- TGI (SR leukemia): > 100 µM
- GI50 (TK-10 renal): > 100 µM
- TGI (TK-10 renal): > 100 µM
- GI50 (OVCAR-8 ovarian): > 100 µM
- TGI (OVCAR-8 ovarian): > 100 µM
- GI50 (HCT-15 colon): > 100 µM
- TGI (HCT-15 colon): > 100 µM
- GI50 (UACC-62 melanoma): > 100 µM
- TGI (UACC-62 melanoma): > 100 µM
- GI50 (A498 renal): > 100 µM
- TGI (A498 renal): > 100 µM
- GI50 (EKVX NSCLC): > 100 µM
- TGI (EKVX NSCLC): > 100 µM
- GI50 (NCI-H460 lung): > 100 µM
- TGI (NCI-H460 lung): > 100 µM
- GI50 (OVCAR-3 ovarian): > 100 µM
- TGI (OVCAR-3 ovarian): > 100 µM

Compound: C/C=C(\N=C=S)C(=O)OC1C(COC(C)=O)OC([C@]2(O)CC(=O)C(=N)C(C(=O)O)=C2O)C(O)C1OC1CC(OC)C(O)([C@@H](C)OC(=O)[C@@H](C)CC)C(C)O1 (stereo partly drawn)
- TGI (UACC-257 melanoma): 29.9 µM
- TGI (SR leukemia): 23.2 µM
- TGI (TK-10 renal): 31.4 µM
- TGI (OVCAR-8 ovarian): 15 µM
- TGI (HCT-15 colon): 37.1 µM
- TGI (UACC-62 melanoma): 10.3 µM
- TGI (A498 renal): 62.5 µM
- TGI (EKVX NSCLC): 30.3 µM
- TGI (NCI-H460 lung): 47.5 µM
- TGI (OVCAR-3 ovarian): 35.7 µM
